Assay results: patent publication US10675293B2, “Nucleoside agents for the reduction of the deleterious activity of extended nucleotide repeat containing genes” (The Board of Trustees of the Leland Stanford Junior …, priority 2015, dated 2020)

Target: T1, Supt4h-YC / Supt5h NGN-YN interaction (Homo sapiens, UniProt O00267+P63272)
T1 construct: NGN-YN is a genetic engineered protein in which Supt5h NGN domain is fused to YFP YN; expressed in transfected cells
Assay: Bimolecular fluorescence complementation (BiFC) assay in 2-PN4 stable cells
Format: cell-based
Experimental: Human Supt4h and Supt5hNGN were fused in-frame with the YC and YN respectively. The YN and YC represent the N- and C-terminal domain of yellow fluorescent protein Venus. To prevent a change in protein folding caused by the conjugation of two polypeptides (Kerppola, “Design and implementation of bimolecular fluorescence complementation (BiFC) assays for the visualization of protein interactions in living cells,” Nature protocols (2006) 1:1278-1286), a protein linker containing additional 10 amino acid residues was included in the fusion protein. Also, extra amino acids GSHM were incorporated into the Supt5hNGN to increase its protein stability (Wenzel et al., “Crystal structure of the human transcription elongation factor DSIF hSpt4 subunit in complex with the hSpt5 dimerization interface,” The Biochemical journal (2010) 425:373-380). Supt4h, NGN, YC, and YN were amplified by PCR to generate DNA fragments containing the nucleotide sequence of protein linker. Supt4h and NGN PCR products then were mixed with the PCR product of YN or YC for secondary overlapping PCR. Finally, the resulting Supt4h-YC and NGN-YN DNA fragment was cloned into plasmid vector pcDNA3-HA and pFLAG-CMV-2 respectively.
Tet-on HeLa cells were transfected with linearized pTRE-HA-Supt4h-VC-Flag-NGN-VN plasmid construct using LipofectAMINE 2000 (Invitrogen). After transfection, cells were cultured initially in growth medium containing puromycin (1 μg/ml) and then selected for clones that show YFP fluorescence in the presence of tetracycline (4 μg/ml). The stable line having the strongest fluorescence signal was isolated and designated as 2-PN4. Likewise, 21-VS stable line was created using pTRE-HA-Venus.
Stable lines 2-PN4 and 21-VS were pre-cultured in 6-well plates, followed by an incubation of Doxycycline (4 μg/ml) together with various concentrations of chemical compounds for 24 hr. Cells were washed with PBS (Sigma) and monitored by microscope (20× magnification). Photos were taken using Nikon D500 camera with a setting of ISO 1600, shutter 1/200 for the light images, and shutter ½ for the fluorescence images. For quantification of fluorescence intensity, 5 photos with similar cell number were taken and the fluorescence signal was measured by Metamorph software individually. The average of overall fluorescence signal was determined and compared to the one observed in DMSO-treated control sample.
For the purpose of high-throughput drug screening, based on the BiFC method as mentioned above, we have created a stable cell line that co-expresses NGN-YN and Supt4h-YC under the control of a tet-on inducible promoter. […] If the complementation that is driven by NGN and Supt4h interaction is inhibited by a given test compound, the de novo YFP fluorescence signal is affected. […]

SMILES: O=c1cnn([C@@H]2O[C@H](CO)[C@@H](O)[C@H]2O)c(=O)[nH]1 [HD101, 6-Azauridine]
- reduction of BiFC signal compared to mock controls (0.02 μM, 24 hr): approximately 70%
- BiFC fluorescence signal of 2-PN4 cells (various concentrations, 24 hr with Doxycycline 4 μg/ml): inhibits the fluorescence signal of BiFC
